Results taken from patent US4857549A, “Antitumor compounds” (priority 1988, dated 1989).
Where “and” joins values, the source holds several entries; their conditions need not be identical. Equal entries are not always repeated. Where two headings read alike, the source gives them in different places.

Assays:
P388 leukemia = details: for ILS (maximum increase in lifespan): ip P388 leukemia mice, ip days 1-5, slash-separated figures are separate experiments
in vivo = details: mouse, ip
[1] = test system: M5076 reticulum cell sarcoma; assay: ip M5076 reticulum cell sarcoma assay in mice; details: for MTD (maximally tolerated dose) / ILS max (maximum increase in lifespan): Table C, ip qD × 10; for MTD (maximally tolerated dose): B6D2F1 female mice; for ILS max (maximum increase in lifespan): ip M5076 sarcoma mice, slash = separate experiments, compound 2: seven experiments; for activity in the ip M5076 reticulum cell sarcoma assay: in words, based on Tables C and D
Protocol: Another chemosensitive tumor model is intraperitoneally (ip) implanted M5076 reticulum cell sarcoma in mice. In this system B6D2F1 female mice are inoculated with 0.5 ml of a 10 percent weight:volume (w:v) brei of M5076 prepared from pooled subcutaneous (sc) tumors excised at about 21 days from c57B1/6 donor mice. Drugs are administered ip. Daily treatment is begun 24 hours after implantation and is continued for ten days. The treatment regimen for M5076 is more prolonged than for P388 because of the slower growth rate and longer control survival time of the M5076 tumor.

[2] = Table B, B6D2F1 female mice, ip qD × 5
[3] = Table B, compound 2: 35 experiments

Compound	MTD (maximally tolerated dose) (P388 leukemia; [2])	ILS (maximum increase in lifespan) (P388 leukemia; [3])	MTD (in vivo)	also measured
CCOC(=S)[S][Au][PH](CC(O)[PH]([Au][S]C(=S)OCC)(c1ccccc1)c1ccccc1)(c1ccccc1)c1ccccc1 (stereo not drawn) [Compound 19, μ-[1,2-Bis(Diphenylphosphino)Ethanol]Bis[O-Ethyldithiocarbonatogold(I)]]	6 mg/kg			
[Cl][Cu][PH](CC[PH]([Cu][Cl])(c1ccccc1)c1ccccc1)(c1ccccc1)c1ccccc1 [Compound 14, μ-[1,2-Bis(Diphenylphosphino)Ethane]Bis[Chlorocopper(I)]]	4 mg/kg	65% and 79%		
C1CCC(P(CCP(C2CCCCC2)C2CCCCC2)C2CCCCC2)CC1 [Compound 44, 1,2-bis(dicyclohexylphosphino)ethane]			32 mg/kg	
μ-[1,2-Bis[Bis(2-Methylthiophenyl)Phosphino]Ethane]Bis[Chlorogold(I)] [Compound 28]	8 mg/kg			
CC(C(C)P(c1ccccc1)c1ccccc1)P(c1ccccc1)c1ccccc1 (single isomer, unassigned; (-)) [Compound 42]			48 mg/kg	
c1ccc(P(CCCCCP(c2ccccc2)c2ccccc2)c2ccccc2)cc1 [Compound 39, Bis (1,5-diphenylphosphino)pentane]			8 mg/kg	
C[C@H](C[PH]([Au][Cl])(c1ccccc1)c1ccccc1)[PH]([Au][Cl])(c1ccccc1)c1ccccc1 [Compound 10, μ-[(R)-(+)-1,2Bis(Diphenylphosphino)Propane]Bis[Chlorogold(I)]]	6 mg/kg	50% and 25%		
Fc1ccc(P(CCP(c2ccc(F)cc2)c2ccc(F)cc2)c2ccc(F)cc2)cc1 [Compound 45, 1,2-ethanediyl-bis[bis(4-fluorophenyl)phosphine]]			8 mg/kg	
c1ccc(P(CCCCP(c2ccccc2)c2ccccc2)c2ccccc2)cc1 [Compound 38, Bis(1,4-diphenylphosphino)butane]			28 mg/kg	
O=[N+]([O-])[O][Ag][PH](CC[PH]([Ag][O][N+](=O)[O-])(c1ccccc1)c1ccccc1)(c1ccccc1)c1ccccc1 [Compound 13, μ-[1,2-Bis(Diphenylphosphino)Ethane]Bis[Nitratosilver(I)]]	6 mg/kg	45% and 30%		
CSc1ccccc1P(CCP(c1ccccc1SC)c1ccccc1SC)c1ccccc1SC [Compound 47, 1,2-ethanediyl-bis[bis(2-methylthiophenyl)phosphine]]			64 mg/kg	
[Cl][Au][PH](CC[PH](Cc1ccccc1)(Cc1ccccc1)[Au][Cl])(Cc1ccccc1)Cc1ccccc1 [Compound 23, μ-[1,2-Bis(Dibenzylphosphino)Ethane]Bis[Chlorogold (I)]]	4 mg/kg	45% and 30%		MTD (maximally tolerated dose) [1]: 4 mg/kg; ILS max (maximum increase in lifespan) [1]: 40%
CC(=O)[O][Au][PH](CC[PH]([Au][O]C(C)=O)(c1ccccc1)c1ccccc1)(c1ccccc1)c1ccccc1 [Compound 17, μ-[1,2-Bis(Diphenylphosphino)Ethane]Bis[Acetatogold(I)]]	4 mg/kg	73% and 64%		MTD (maximally tolerated dose) [1]: 4 mg/kg; ILS max (maximum increase in lifespan) [1]: 54% and 67%; activity in the ip M5076 reticulum cell sarcoma assay [1]: good activity
CSc1ccc(P(CCP(c2ccc(SC)cc2)c2ccc(SC)cc2)c2ccc(SC)cc2)cc1 [Compound 48, 1,2-Ethanediyl-Bis[Bis(4-methylthiophenyl)phosphine]]			32 mg/kg	
Fc1cccc([PH](CC[PH]([Au][Cl])(c2cccc(F)c2)c2cccc(F)c2)([Au][Cl])c2cccc(F)c2)c1 [Compound 26, μ-[1,2-Bis[Bis(3-Fluorophenyl)Phosphino]Ethane]Bis [Chlorogold (I)]]	8 mg/kg	60% and 55%		
CSc1ccc([PH](CC[PH]([Au][Cl])(c2ccc(SC)cc2)c2ccc(SC)cc2)([Au][Cl])c2ccc(SC)cc2)cc1 [Compound 30, μ-[1,2-Bis[Bis(4-Methylthiophenyl)Phosphino]ethane]-Bis[chlorogold(I)]]	8 mg/kg	37% and 65%		

Compound	MTD (maximally tolerated dose) (P388 leukemia; [2])	ILS (maximum increase in lifespan) (P388 leukemia; [3])	MTD (in vivo)	also measured
[Cl][Au][PH](C=C[PH]([Au][Cl])(c1ccccc1)c1ccccc1)(c1ccccc1)c1ccccc1 [Compound 8, μ-[Trans-1,2-Bis(Diphenylphosphino)Ethylene]Bis[Chlorogold(I)]]	24 mg/kg	33% and 36%		
C(=C\P(c1ccccc1)c1ccccc1)/P(c1ccccc1)c1ccccc1 [Compound 41, Trans-bis(1,2-diphenylphosphino)ethylene]			128 mg/kg	
[2H]c1c([2H])c([2H])c([PH](CC[PH]([Au][Cl])(c2c([2H])c([2H])c([2H])c([2H])c2[2H])c2c([2H])c([2H])c([2H])c([2H])c2[2H])([Au][Cl])c2c([2H])c([2H])c([2H])c([2H])c2[2H])c([2H])c1[2H] [Compound 31, μ-[1,2-Bis[di(phenyl-d5)phosphino]ethane]bis-[chlorogold(I)]]	6 mg/kg	40% and 65%		
FC(F)(F)c1ccc([PH](CC[PH]([Au][Cl])(c2ccc(C(F)(F)F)cc2)c2ccc(C(F)(F)F)cc2)([Au][Cl])c2ccc(C(F)(F)F)cc2)cc1 [Compound 29]	8 mg/kg	37% and 44%		
FC(F)(F)[S][Au][PH](CC[PH]([Au][S]C(F)(F)F)(c1ccccc1)c1ccccc1)(c1ccccc1)c1ccccc1 [Compound 18, μ-[1,2-Bis(diphenylphosphino)ethane]Bis[trifluoromethyl-thiogold(I)]]				ILS max (maximum increase in lifespan) [1]: 70%
Fc1cccc(P(CCP(c2cccc(F)c2)c2cccc(F)c2)c2cccc(F)c2)c1 [Compound 46, 1,2-Ethanediyl-bis[bis(3-fluorophenyl)phosphine]]			32 mg/kg	
Fc1c(F)c(F)c([PH](CC[PH]([Au][Cl])(c2c(F)c(F)c(F)c(F)c2F)c2c(F)c(F)c(F)c(F)c2F)([Au][Cl])c2c(F)c(F)c(F)c(F)c2F)c(F)c1F [Compound 27, μ-[1,2-Bis[bis(2,3,4,5,6-pentafluorophenyl)phosphine]ethane]-bis[chlorogold(I)]]	16 mg/kg	30% and 25%		
COc1ccc([PH](CC[PH]([Au][Cl])(c2ccc(OC)cc2)c2ccc(OC)cc2)([Au][Cl])c2ccc(OC)cc2)cc1 [Compound 24, μ-[1,2-Bis[Bis(4-methoxyphenyl)phosphino]ethanel]bis[chlorogold(I)]]	8 mg/kg			
CC[PH](CC)(CC[PH]([Au][Cl])(c1ccccc1)c1ccccc1)[Au][Cl] [Compound 21, μ-[1-Diethylphosphino-2-Diphenylphosphino-Ethane]bis-[Chlorogold(I)]]	16 mg/kg	30%		
CCP(CC)CCP(CC)CC [Compound 49]			64 mg/kg	
Fc1ccc([PH](CC[PH]([Au][Cl])(c2ccc(F)cc2)c2ccc(F)cc2)([Au][Cl])c2ccc(F)cc2)cc1 [Compound 25, μ-[1,2-Bis[Bis(4-Fluorophenyl)Phosphino]Ethane]Bis-[Chlorogold (I)]]	8 mg/kg	80% and 75%		
N#C[S][Au][PH](CC[PH]([Au][S]C#N)(c1ccccc1)c1ccccc1)(c1ccccc1)c1ccccc1 [Compound 16]	6 mg/kg	36% and 62% and 45%		MTD (maximally tolerated dose) [1]: 5 mg/kg; ILS max (maximum increase in lifespan) [1]: 52%; activity in the ip M5076 reticulum cell sarcoma assay [1]: good activity
CCP(CC)CCP(CC)CC [Compound 50]				MTD (maximally tolerated dose) (P388 leukemia; Table BI, B6D2F1 female mice, ip qD × 5): 128 mg/kg; ILS (maximum increase in lifespan) (P388 leukemia; Table BI, compound 33: 41 experiments): 55%
CC(C[PH]([Au][Cl])(c1ccccc1)c1ccccc1)[PH]([Au][Cl])(c1ccccc1)c1ccccc1 (stereo not drawn) [Compound 9, μ-[1,2-Bis(Diphenylphosphino)Propane]Bis[Chlorogold(I)]]	6 mg/kg	45% and 60% and 35%		MTD (maximally tolerated dose) [1]: 5 mg/kg; ILS max (maximum increase in lifespan) [1]: 98%; activity in the ip M5076 reticulum cell sarcoma assay [1]: good activity
CCOC(=O)C(N)C[S][Au][PH](CC[PH]([Au][S]CC(N)C(=O)OCC)(c1ccccc1)c1ccccc1)(c1ccccc1)c1ccccc1 (stereo not drawn) [Compound 20]	6 mg/kg	50% and 56%		
CC(C(C)[PH]([Au][Cl])(c1ccccc1)c1ccccc1)[PH]([Au][Cl])(c1ccccc1)c1ccccc1 [Compound 11, μ-[(-) (2S,3S)-2,3-Bis(Diphenylphosphino)Butane]Bis[Chlorogold(I)]]				MTD (maximally tolerated dose) (P388 leukemia; mouse, in vivo, ip): 6 mg/kg
